In patent US8217071B2, “Use of inhibitors of the degradation of p27, in particular Argyrin and derivatives thereof, for the treatment of proliferative diseases” (Helmholtz Zentrum für Infektionsforschung GmbH, priority 2007, dated 2012):
In brackets after ≈: the same amount, converted by molar mass. Numbered stars: 1 amine (or outer) side, 2 acyl side, 3 side chain; on linkers, the order of the positions; unused ones are H or OH. Square brackets hold non-standard residues; d marks the D form. Peptide text beside a SMILES is read from it. dAla(ψthiazole) = C[C@@H](N[*:1])c1nc(C(=O)[*:2])cs1; Trp(4-OMe) = COc1cccc2[nH]cc(C[C@H](N)C(=O)O)c12; Dha = C=C(N)C(=O)O; Sar = CNCC(=O)O

Tests used:
[1] = test system: primary human fibroblasts; test: Flow cytometry cell cycle / sub-G1 analysis; assay type: cell-based; conditions: at ranges of IC50
Protocol: (§1) The expression levels of p27^kip1 were determined at the indicated timepoints by western blotting and normalized against actin expression which was used as an internal control.
MTT assays were done as previously described (Sasse, F. et al. Argyrins, immunosuppressive cyclic peptides from myxobacteria. I. Production, isolation, physico-chemical and biological properties. J Antibiot (Tokyo) 55, 543-51 (2002)). TUNEL staining of tissue sections was performed on 10 micrometer sections which were deparafinised and treated as recommended by the manufacturer. (In Situ Cell Death Detection Kit, Fluorescein; ROCHE, Cat #11 684 795 910). Flow cytometric analysis of cultured cells was done using a Becton Dickinson fluorescence cytometer as previously described (Malek, N. P. et al. A mouse knock-in model exposes sequential proteolytic pathways that regulate p27^Kip1 in G1 and S phase. Nature 413, 323-7 (2001)). Analysis of the distribution of cells in the cell cycle and the sub-G1 fraction was done using Cell Quest software. A histone-associated-DNA-fragments ELISA was used to determine the number of apoptotic cells according to manufacturers instructions (Roche #11 774425001).

[2] = test system: HeLa cells; test: Apoptosis in HeLa cells with p27^kip1 specific siRNA; assay type: cell-based, human; conditions: 24 or 48 hours
Text: Next the inventors tested whether the stabilization of p27 was indeed required for the apoptosis inducing function of Argyrin A or was merely a consequence of proteasome inhibition. For this the inventors treated immortalized mouse embryonic fibroblasts from p27^kip1 wildtype or knockout mice with Argyrin A or the proteasome inhibitor bortezomib and assayed cell cycle distribution and apoptosis by flow cytometry. […] These differences in sensitivity in response to Argyrin A treatment were not due to differences in the accumulation of other proteasomal substrates in p27 wildtype and knockout cells as p53 and p21 levels increased in both cell lines in response to Argyrin A (FIG. 6B). To extend this observation to human cancer cells the inventors reduced the levels of p27^kip1 in HeLa cells using p27^kip1 specific siRNA.
The results shown are the average numbers for six independent experiments. b+d) Wildtype (b) and p27 knockout (d) MEF were treated with Argyrin A or transfected with siRNAs specific for the β1, β2 or β5 subunit of the proteasome for 24 hours. The graphs show the remaining catalytic activity of the different proteasome subunits after Argyrin A or siRNA treatment compared to an untreated control (n=3). […]

[3] = test system: H15 (cervix carcinoma); test: MIC (visual), serial dilution, H15; assay type: cell-based, human; conditions: minimal concentration of a serial dilution exhibiting a visual effect
Text: (§2) The following table summarizes the effects of argyrin-derivatives A to H on two cancer cell lines, H15 (cervix carcinoma) and SW-480 (colon cancer). In order to test the efficacy, a p27-GFP-clone was used.

[4] = test system: p27-GFP (clone H15GFP-p27, HeLa-cell line; cervix-carcinoma); test: GFP-fluorescence per FACS in clone H15GFP-p27; assay type: cell-based, human; conditions: GFP-fluorescence per FACS after 24 h incubation, 500 ng/ml
Text: Human p27cDNA (in plasmid vector CS2+) was digested with EcoR1 and BamH1, and the resulting fragment was ligated after gel purification into the vector pEGFP-N1 (Clontech) that was cut with the same restriction enzymes. Thus, a […] fusion with the GFP as contained in the pEGFP-vector was generated. The plasmid was then transfected into Hela cells, and, following selection of the cells with kanamycin, cellular clones were isolated which had the plasmid integrated stably into their chromosome. The expression of the p27EGFP proteins was confirmed using Western blots and immune precipitations for both p27 and GFP.
as §2

[5] = biological target: T1, purified human 20S proteasome (Homo sapiens, UniProt P28072+P28074+Q99436); test: Proteasome assay with purified 20S proteasome, fluorogenic peptide substrates; assay type: biochemical; conditions: purified human erythrocyte derived 20S proteasome
T1 construct: using erythrocyte-derived 20S proteasome (Biomol International, #LP PW8720); purchased Biomol International #LP PW8720; host or cells: human erythrocytes
Protocol: as §1
Proteasome assays with purified 20S proteasome were performed as previously described (Lightcap, E. S. et al. Proteasome inhibition measurements: clinical application. Clin Chem 46, 673-83 (2000)) using erythrocyte-derived 20S proteasome (Biomol International, #LP PW8720) and fluorometric substrates Succ-LLVY-AMC, BZ-VGR-AMC and Z-Lle-AMC (Biomol International, LP PW9905) as probes according to the manufacturers instructions. Proteasome extraction from cells and tumour sections was done as previously described (Crawford, L. J. et al. Comparative selectivity and specificity of the proteasome inhibitors BzLLLCOCHO, PS-341, and MG-132. Cancer Res 66, 6379-86 (2006)). Briefly cells (MEF or MCF-7) or tissue sample homogenate (tumour sections) were re-suspended in 1 mL ATP/DTT lysis buffer (10 mmol/L Tris-HCl (pH 7.8), 5 mmol/L ATP, 0.5 mmol/L DTT, 5 mmol/L MgCl2), and incubated on ice for 10 minutes, followed by sonication for 15 seconds. […] Protein concentration of the samples was measured using a coomassie protein assay (Pierce, Rockford, Ill.).

C=C1NC(=O)[C@@H](C)NC(=O)CNC(=O)[C@H](Cc2c[nH]c3cccc(OC)c23)NC(=O)[C@H](Cc2c[nH]c3ccccc23)NC(=O)c2csc(n2)[C@@H](C)NC(=O)CN(C)C1=O [Argyrin A] (cyclo(W[Trp(4-OMe)]G[dA][Dha][Sar][dAla(ψthiazole)]))
cellular phenotype [1]: stopped to proliferate | apoptosis inducing function in HeLa cells treated with p27siRNA [2]: completely blocked | MIC (visual) H15 [3]: 4 µg/mL (≈ 4.85 µM) | Mean of FSC-H (Log) H15 p27-GFP-clone [4]: 8.52 | caspase, trypsin and chymotrypsin like proteasome activities [5]: dose dependent inhibition
